Legend:
cSrc enzyme = cSrc enzyme (Homo sapiens (Human), UniProt P12931); experiment: c-SRC enzyme inhibition assay (FRET, Z'-LYTE); type: biochemical; details: read-out: Enzyme Profile: IC50 Values cSrc
p38 MAPK γ (MAPK12) = p38 MAPK γ (MAPK12) (Homo sapiens (Human), UniProt P53778); experiment: Enzyme inhibition assay (FRET, Z-LYTE), p38 MAPK gamma; type: biochemical; details: read-out: Enzyme Profile: IC50 Values p38γ
Method: (§1) The enzyme inhibitory activity of test compounds was determined by fluorescence resonance energy transfer (FRET) using synthetic peptides labelled with both donor and acceptor fluorophores (Z-LYTE, Invitrogen). Recombinant, phosphorylated p38 MAPK γ (MAPK12:Millipore) was diluted in HEPES buffer, mixed with compound at the desired final concentrations and incubated for 2 hr at RT. The FRET peptide (2 μM) and ATP (100 μM) were next added to the enzyme/compound mixture and incubated for 1 hr. Development reagent (protease) was added for 1 hr prior to detection in a fluorescence microplate reader. The site-specific protease only cleaves non-phosphorylated peptide and eliminates the FRET signal. Phosphorylation levels of each reaction were calculated using the ratio of coumarin emission (donor) over fluorescein emission (acceptor) with high ratios indicating high phosphorylation levels and low ratios indicating low phosphorylation levels.

HRV16 = experiment: Rhinovirus-titre assay; type: cell-based, human rhinovirus; details: HRV16; for inhibition at 0.04 µg/mL: Human rhinovirus sp., cell not marked b, test compounds 0.04 μg/mL per method (footnote b, 0.2 μg/mL), read-out: HRV titre (inhibitory %): % inhibition observed vs. HRV16 infection control
[1] = system: ICAM-1 expression in BEAS2B cells; experiment: Poly I:C-induced ICAM-1 induction in BEAS2B cells; type: cell-based; details: Homo sapiens, BEAS-2B; BEAS2B cells, poly I:C 1 μg/mL, 18 hr; read-out: BEAS2B (polyIC) ICAM1 IC50
Method in brief: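 Human bronchial epithelial BEAS2B cells pre-incubated 2 hr with test compounds at final concentrations, then transfected with poly I:C (1 μg/mL) using Oligofectamine. Cell-surface ICAM-1 quantified by cell-based ELISA with HRP-conjugated anti-rabbit IgG secondary.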

[2] = system: IL-8 release in d-U937 cells; experiment: LPS-induced IL-8 release in d-U937 cells; type: cell-based; details: Homo sapiens, dU937; d-U937 cells, LPS 0.1 μg/mL, 4 hr; read-out: d-U937 (LPS) IL-8 IC50
Method in brief: (§2)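 U937 cells made macrophage-like by 48–72 h with PMA (100 ng/mL), then stimulated with LPS (E. coli O111:B4) for 4 h. Supernatant TNFα and IL-8 measured by sandwich ELISA; inhibition versus vehicle control at each concentration, REC50 from concentration-response curve.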

HCK enzyme = HCK enzyme (Homo sapiens (Human), UniProt P08631); experiment: HCK enzyme inhibition assay (FRET, Z'-LYTE); type: biochemical; details: read-out: Enzyme Profile: IC50 Values HCK
[3] = system: TNFα release in THP-1 cells; experiment: LPS-induced TNFα release in THP-1 cells; type: cell-based; details: Homo sapiens; THP-1 cells, LPS 3 μg/mL, 4 hr; read-out: THP1 (LPS) TNFα IC50
Method: The inhibition of TNFα production was calculated at each concentration by comparison with vehicle control.

[4] = system: Differentiated U937 cells; experiment: MTT assay: cell viability; type: cell-based, human; details: 1 μg/ml; for d-U937 MTT Assay 4 h: 5% FCS; for d-U937 MTT Assay 24 h: 10% FCS
Method in brief: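 Differentiated U937 cells pre-incubated with compound either 4 hr in 5% FCS or 24 h in 10% FCS, then 1 hr MTT. Formazan dissolved in DMSO, absorbance at 550 nm. Percentage viability loss relative to 0.5% DMSO vehicle; apparent increases appear as negative percentages.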

p38 MAPK alpha (MAPK14) = p38 MAPK alpha (MAPK14) (Homo sapiens (Human), UniProt Q16539); experiment: Enzyme inhibition assay (FRET, Z-LYTE), p38 MAPK alpha via MAPKAP-K2 activation; type: biochemical; details: read-out: Enzyme Profile: IC50 Values p38α
Method: as §1
For p38 MAPK alpha (MAPK14: Invitrogen), enzyme activity was evaluated indirectly by determining activation/phosphorylation of the down-stream molecule, MAPKAP-K2. The p38 MAPK a protein was mixed with compound for 2 hr at RT. […] Development reagent was then added and the mixture incubated for 1 hr before detection by fluorescence completed the assay protocol.
The enzyme inhibitory activity of compound was determined by fluorescence resonance energy transfer (FRET) using synthetic peptides labelled with both donor and acceptor fluorophores (Z′-LYTE, Invitrogen).

[5] = system: TNFα release in d-U937 cells; experiment: LPS-induced TNFα release in d-U937 cells; type: cell-based; details: Homo sapiens, dU937, LPS 0.1 μg/mL, 4 hr, relative to 10 μg/mL BIRB796, read-out: d-U937 (LPS) TNFα REC50
Method in brief: as §2

Row | Structure (SMILES) | IC50 (cSrc enzyme) [nM] | IC50 (p38 MAPK γ (MAPK12)) [nM] | IC50 [2] [nM] | IC50 (HCK enzyme) [nM] | IC50 [3] [nM] | IC50 (p38 MAPK alpha (MAPK14)) [nM] | EC50 [5] [nM] | inhibition at 0.04 µg/mL (HRV16) [%] | IC50 [1] [nM] | d-U937 MTT Assay 4 h [4] | d-U937 MTT Assay 24 h [4] | NBEC (HRV) HRV titre Relative anti-viral activity (HRV16; at 0.04 μg/mL vs. pleconaril at 0.1 μg/mL)
1 | Cc1ccc(-n2nc(C(C)(C)C)cc2NC(=O)Nc2ccc(Oc3ncnc4[nH]c(=O)[nH]c34)c3ccccc23)cc1 [Example 15, 1-(3-(tert-Butyl)-1-(p-tolyl)-1H-pyrazol-5-yl)-3-(4-((8-oxo-8,9-dihydro-7H-purin-6-yl)oxy)naphthalen-1-yl)urea] | 35 | 539 | 164 | 36 | 126 | 30 | 33 | 8 | > 182 | − (− and + indicate the result is below and above the no significant effect threshold, respectively (<30% inhibition at a concentration of 1 μg/ml)) | − (− and + indicate the result is below and above the no significant effect threshold, respectively (<30% inhibition at a concentration of 1 μg/ml)) | –
2 | COc1ccc(-n2nc(C(C)(C)C)cc2NC(=O)Nc2ccc(Oc3ccnc4[nH]c(=O)n(C)c34)c3ccccc23)cn1 [Example 24, 1-(3-(tert-butyl)-1-(6-methoxypyridin-3-yl)-1H-pyrazol-5-yl)-3-(4-((1-methyl-2-oxo-2,3-dihydro-1H-imidazo[4,5-b]pyridin-7-yl)oxy)naphthalen-1-yl)urea] | 16 | 126 | 11 | 5 | 4.4 | 7 | 1.3 | 91 | 12 | − (− and + indicate the result is below and above the no significant effect threshold, respectively (<30% inhibition at a concentration of 1 μg/ml)) | − (− and + indicate the result is below and above the no significant effect threshold, respectively (<30% inhibition at a concentration of 1 μg/ml)) | –
3 | Cc1ccc(-n2nc(C3CC3)cc2NC(=O)Nc2ccc(Oc3ccnc4[nH]c(=O)cnc34)c3ccccc23)cc1 [Example 28, 1-(3-cyclopropyl-1-(p-tolyl)-1H-pyrazol-5-yl)-3-(4-((3-oxo-3,4-dihydropyrido[2,3-b]pyrazin-8-yl)oxy)naphthalen-1-yl)urea] | 22 | > 18000 | 71 | 9 | 161 | 2 | 40 | 36 | > 184 | − (− and + indicate the result is below and above the no significant effect threshold, respectively (<30% inhibition at a concentration of 1 μg/ml)) | − (− and + indicate the result is below and above the no significant effect threshold, respectively (<30% inhibition at a concentration of 1 μg/ml)) | –
4 | CC(C)(C)c1cc(NC(=O)Nc2ccc(Oc3ccnc4[nH]c(=O)cnc34)c3ccccc23)n(-c2ccc(Cl)cc2)n1 [Example 27, 1-(3-(tert-butyl)-1-(4-chlorophenyl)-1H-pyrazol-5-yl)-3-(4-((3-oxo-3,4-dihydropyrido[2,3-b]pyrazin-8-yl)oxy)naphthalen-1-yl)urea] | 16 | 237 | 1.1 | 918 | 7.5 | 3 | 1.6 | 94 | 2.2 | − (− and + indicate the result is below and above the no significant effect threshold, respectively (<30% inhibition at a concentration of 1 μg/ml)) | − (− and + indicate the result is below and above the no significant effect threshold, respectively (<30% inhibition at a concentration of 1 μg/ml)) | –

Molecules with a lower IC50 (cSrc enzyme), results first:

Row | IC50 (cSrc enzyme) [nM] | IC50 (p38 MAPK γ (MAPK12)) [nM] | IC50 [2] [nM] | IC50 (HCK enzyme) [nM] | IC50 [3] [nM] | IC50 (p38 MAPK alpha (MAPK14)) [nM] | EC50 [5] [nM] | Structure (SMILES) | inhibition at 0.04 µg/mL (HRV16) [%] | IC50 [1] [nM] | d-U937 MTT Assay 4 h [4] | d-U937 MTT Assay 24 h [4] | NBEC (HRV) HRV titre Relative anti-viral activity (HRV16; at 0.04 μg/mL vs. pleconaril at 0.1 μg/mL)
5 | 12 | 495 | 1.1 | 8 | 1.3 | 11 | 0.5 | COc1ccc(-n2nc(C(C)(C)C)cc2NC(=O)Nc2ccc(Oc3ccnc4[nH]c(=O)n(C(C)C)c34)c3ccccc23)cc1 [Example 12] | 94 | 1.9 | − (− and + indicate the result is below and above the no significant effect threshold, respectively (<30% inhibition at a concentration of 1 μg/ml)) | − (− and + indicate the result is below and above the no significant effect threshold, respectively (<30% inhibition at a concentration of 1 μg/ml)) | –
6 | 8 | 44 | 16 | 3 | 13 | 6 | 3.4 | COc1ccc(-n2nc(C(C)(C)C)cc2NC(=O)Nc2ccc(Oc3ccnc4[nH]c(=O)cnc34)c3ccccc23)cn1 [Example 20] | 36 | 21 | − (− and + indicate the result is below and above the no significant effect threshold, respectively (<30% inhibition at a concentration of 1 μg/ml)) | − (− and + indicate the result is below and above the no significant effect threshold, respectively (<30% inhibition at a concentration of 1 μg/ml)) | –
7 | 7 | 35 | 1.6 | 4 | 2.1 | 2 | 1.3 | COc1ccc(-n2nc(C(C)(C)C)cc2NC(=O)Nc2ccc(Oc3ccnc4[nH]c(=O)cnc34)c(Cl)c2Cl)cc1 [Example 19, 1-(3-(tert-Butyl)-1-(4-methoxyphenyl)-1H-pyrazol-5-yl)-3-(2,3-dichloro-4-((3-oxo-3,4-dihydropyrido[2,3-b]pyrazin-8-yl)oxy)phenyl)urea] | 80 | 0.6 | − (− and + indicate the result is below and above the no significant effect threshold, respectively (<30% inhibition at a concentration of 1 μg/ml)) | − (− and + indicate the result is below and above the no significant effect threshold, respectively (<30% inhibition at a concentration of 1 μg/ml)) | –
8 | 7 | 74 | 19 | < 2 | 1.6 | 17 | 0.2 | Cc1ccc(-n2nc(C(C)(C)C)cc2NC(=O)Nc2ccc(Oc3ccnc4[nH]c(=O)[nH]c34)c3ccccc23)cc1 [Example 1, 1-(3-tert-butyl-1-p-tolyl-1H-pyrazol-5-yl)-3-(4-(2-oxo-2,3-dihydro-1H-imidazo [4,5-b]pyridin-7-yloxy)naphthalen-1-yl) urea] | 94 | 2.7 | − (− and + indicate the result is below and above the no significant effect threshold, respectively (<30% inhibition at a concentration of 1 μg/ml)) | − (− and + indicate the result is below and above the no significant effect threshold, respectively (<30% inhibition at a concentration of 1 μg/ml)) | 0.1
